From patent US20250352555A1, “METHOD OF INCREASING IMMUNE CELL ACTIVATION AND/OR TREATING CANCER USING DIBENZOXAZEPINONES” (VASCULAR THERAPEUTICS PTY LTD, priority 2022, published 2025)
Read-outs that look alike come from different tables or passages of the source.

How the values were obtained:
[1] = tested on: resistant melanoma PDX; details: resistant melanoma PDX model; cited from earlier work
[2] = tested on: PD-1; test: Flow cytometry with anti-PD-1 antibodies, Jurkat T cells; format: cell-based, human; details: same concentration range as BT2, 48 h (FIG. 17B)
Experimental: Flow cytometry with anti-PD-1 antibodies. Jurkat T cells were grown in 6 well plates containing RPMI 1640 and 10% FBS. After 24 h, the cells were treated with various concentrations of BT2 or BT3 for 48 h. Alternatively, the cells were incubated with 3 μM BT2 for various times. After treatment, the cells were washed with PBS, and centrifuged at 300×g for 5 min, and resuspended at 5×10^6 cells/ml. The cells were then incubated with BV421 conjugated mouse anti-human CD279 (PD-1) (BD, cat. no. 562516) or BV421 conjugated mouse IgG1 (BD, cat. no. 562438) for 45 min at 22° C. Cells were then washed twice with 1 ml of Stain Buffer, centrifuged and pellets were resuspended in 0.5 ml Stain Buffer. Stained cell suspensions were analyzed by flow cytometry using a BD FACSCanto (II).
Jurkat T cells express PD-1 (Yi et al., 2023) and are widely used as model human T cells (e.g., Repas et al., 2022). […] BT2's effects were not only dose-dependent but time-dependent. BT2 (3 μM) inhibited PD-1 levels by 50% after 24 h and by 80% after 48 h (FIG. 17C).

[3] = tested on: PD-1; test: Western blotting for PD-1, Jurkat T cells; format: cell-based, human; details: 24 h; for PD-1 expression (Western blot): various concentrations
Experimental: (§1) Western blotting. Cells were treated with compounds and times indicated and total cell lysates were prepared in RIPA buffer. Lysates (10 μg) were resolved by SDS-PAGE and transferred to Immobilon-P polyvinylidene difluoride (PVDF) membranes (Millipore, USA).
(§2) Membranes were blocked with 5% skim milk and incubated with rabbit monoclonal anti-c-Jun (Abcam, cat. no. ab32137; mouse, rat and human reactive) antibody, rabbit monoclonal anti-PD-1 (Abcam, cat. no. ab214421) antibody, mouse monoclonal β-actin antibody (Sigma-Aldrich, cat. no. A5316), anti-phospho-SAPK/JNK (Thr^183/Tyr^185) (98F2) (CST, cat. no. 4671) antibody, anti-phospho-p44/42 MAPK (ERK1/2) (Thr^202/Tyr^204) (D13.14.4E) (CST, cat. no. 4370) antibody, anti-phospho-p38 MAPK (Thr^180/Tyr^182) (D3F9) (CST, cat. no. 4511) antibody, anti-SAPK/JNK antibody (CST, cat. no. 9252), anti-p44/42 MAPK (ERK1/2) (137F5) antibody (CST, cat. no. 4695), anti-p38 MAPK antibody (CST, cat. no. 9212), anti-DUSP8 antibody (Abcam, cat. no. ab198175) or anti-c-MAF (BLR045F) antibody (Abcam, cat. no. ab243901). This was followed by incubation with horseradish peroxidase-conjugated secondary goat anti-rabbit (DAKO, cat. no. P0448) or goat anti-mouse (DAKO, cat. no. P0447) antibody. Chemiluminescence was detected using the Western Lightning Chemiluminescence system (Thermo Scientific, USA) and ImageQuant™ LAS 4000 biomolecular imager (GE Healthcare Life Sciences, USA). Band intensity in images generated with the LAS 4000 was quantified using NIH Image J.

[4] = tested on: non-small cell lung carcinoma; details: non-small cell lung carcinoma-bearing mice; cited from earlier work
[5] = tested on: p-ERK (Thr^202/Tyr^204); test: Western blotting for p-ERK, A375 melanoma cells; format: cell-based, human; details: 10 or 100 nM, 24 h
Experimental: as §1
as §2, with “4695), anti-p38 MAPK antibody (CST, cat. no. 9212), anti-DUSP8 antibody (Abcam, cat. no. ab198175) or anti-c-MAF (BLR045F) antibody (Abcam, cat. no. ab243901). This was followed by incubation with horseradish peroxidase-conjugated secondary goat anti-rabbit (DAKO, cat. no. P0448) or goat anti-mouse (DAKO, cat. no. P0447) antibody.” left out
(§3) The effect of BT2 on ERK phosphorylation (p-ERK) was evaluated in human melanoma cells given that MAP kinase activation is key to melanoma progression and the paucity of clinically approved ERK inhibitors. […]

[6] = tested on: p-ERK (Thr^202/Tyr^204); test: Western blotting for p-ERK, MeWo melanoma cells; format: cell-based, human; details: 10 or 100 nM, 24 h
Experimental: as §1
as §2, with “4695), anti-p38 MAPK antibody (CST, cat. no. 9212), anti-DUSP8 antibody (Abcam, cat. no. ab198175) or anti-c-MAF (BLR045F) antibody (Abcam, cat. no. ab243901). This was followed by incubation with horseradish peroxidase-conjugated secondary goat anti-rabbit (DAKO, cat. no. P0448) or goat anti-mouse (DAKO, cat. no. P0447) antibody.” left out
as §3

[7] = tested on: A375 cells; test: Apoptosis, flow cytometry with Annexin V-FITC, A375; format: cell-based, human; details: 1 μM, 24 h
Experimental: (§4) Flow cytometry with Annexin V-FITC. Cells were seeded into 6 well plates in normal culture medium containing 10% FBS. After culturing overnight, the cells were incubated in complete medium containing vehicle, BT2 or SCH772984 at 1 μM and left for 24 h. The culture medium was removed and the cells were washed with PBS. Accutase (Stem Cell Technologies, cat. no. 07920) was used to detach the cells. The cells were then washed and centrifuged at 300 g for 5 min and resuspended at 1×10^6 cells/ml in 500 μl of 1× binding buffer (Annexin V-FITC Apoptosis Staining/Detection Kit, Abcam, cat. no. ab14085). The cells were transferred to 12×75 mm tubes and annexin V-FITC/propidium iodide (PI) was added and incubated for 5 min at 22° C. protected from light. Stained cell suspensions were analyzed by flow cytometry using a BD LSRFortessa X20.
(§5) The morphology of A375 and MeWo cells exposed to 1 μM of BT2 or SCH772984 for 24 h was also assessed.

[8] = tested on: MeWo cells; test: Apoptosis, flow cytometry with Annexin V-FITC, MeWo; format: cell-based, human; details: 1 μM, 24 h
Experimental: as §4, §5

[9] = tested on: advanced melanoma; details: cited from earlier work; for 5 year overall survival: advanced melanoma

In the case of `Cc1cnc(NC2CCOCC2)nc1-n1cnc(C(=O)N[C@H](CN)c2cc(F)cc(Cl)c2)c1` [ASN007], the efficacy [1] is listed as “demonstrates efficacy”.

For `CCN1C(=O)c2cc(N)ccc2Oc2ccccc21` [BT3, 2-amino-10-ethyldibenzo[b,f][1,4]oxazepin-11(10H)-one], the “effect on PD-1 expression” value [2] was “no inhibitory effect”.

For `COc1cccc(-c2cc(=O)c3ccccc3o2)c1N` [PD98059], the “PD-1 expression (Western blot)” value [3] was “no effect on PD-1 expression”.

For `O=C(NOC[C@H](O)CO)c1ccc(F)c(F)c1Nc1ccc(I)cc1F` [PD0325901], the “effect on efficacy of anti-PD-1 antibodies” value [4] is listed as “can enhance the efficacy of anti-PD-1 antibodies”.

With `O=C(Nc1ccc2[nH]nc(-c3ccncc3)c2c1)[C@@H]1CCN(CC(=O)N2CCN(c3ccc(-c4ncccn4)cc3)CC2)C1` [SCH772984, reference compound] the “ERK phosphorylation (p-ERK, Western blot)” value [5] was “suppressed ERK phosphorylation”, the “ERK phosphorylation (p-ERK, Western blot)” value [6] was “suppressed ERK phosphorylation” and the “apoptosis (Annexin V-FITC+ PI−)” value [7] was “no or less potent pro-apoptotic effects”. The “apoptosis (Annexin V-FITC+ PI−)” value [8] was “no or less potent pro-apoptotic effects”, the “potency in suppressing PD-1 expression, fold less potent than BT2” value ([3]; Western blot) was over 10 fold and the “PD-1 expression (Western blot)” value [3] was “suppressed PD-1 expression”.

For pembrolizumab: anti-PD-1 antibody, the “patients with treatment-related adverse events” value ([9]; advanced melanoma patients) is listed as 86%, the “5 year overall survival” value ([9]; all patients) is listed as 34% and the “5 year overall survival” value ([9]; treatment-naive patients) is listed as 41%.
